Molecular target: T1, PscE-PscG interaction (Pseudomonas aeruginosa, UniProt P95435+Q9I317)
T1 construct: made in house; host or cells: E. coli
Assay: ELISA test of inhibition of the PscE-PscG interaction
Format: binding
Conditions: for inhibition at 50 µM: 4 h, read-out: PscE-PscG at 50 μM; for inhibitory effect compared with clioquinol: ELISA test, 50 μM, Table 2; for PscE-PscG at 50 μM: inhibition by new synthetic analogues at 50 μM, PscG 2.2 μM, PscE solution 3 μM; for inhibition at 25 µM: read-out: % inhibition PscE-PscG at 50 μm
Description: 50 μL of PscG protein at 1 μM (for screening libraries) or 2.2 μM (for screening newly synthesized molecules) is incubated in a NUNC 96-well plate for 8 h at 4° C. The wells are washed three times with 200 μL of 1× PBS/0.1% Tween20®. The wells are treated overnight at 4° C. with 200 μL of a 5% milk solution in 1× PBS/0.1% Tween20®. The solution is then discarded, and the plate is drained dry.
The test is carried out as follows:
Negative control (lowest signal level): 100 μL of buffer ([…] Tris-HCl, 250 mM NaCl, pH 8.0);
Positive control (highest signal level): 50 μL of buffer and 50 μL of a test solution at 25 (library screening) or 3 μM (screening of analogue molecules) of the PscE protein;
Test of the inhibitors: 40 μL buffer, 50 μL of a solution at 25 μM (library screening) or 3 μM (screening of analogue molecules) of PscE protein and 10 μL of the solution containing the inhibitor to be tested.
The solutions are left for 4 h at room temperature.
The wells are washed three times with 200 μL of 1× PBS/0.1% Tween20®. The anti-PscE antibody diluted to 1:2,000 in 1× PBS/0.1% Tween20®, 50 μL, is added and the whole is left 2 h at room temperature. The wells are washed three times with 200 μL of 1× PBS/0.1% Tween20®. The HRP-conjugated anti-mouse antibody is diluted to 1:5,000 in 1× PBS/0.1% Tween20® and 50 μL is added and left for 2 h at room temperature. The wells are washed three times with 200 μL of 1× PBS/0.1% Tween20®.
The ELISA test is developed by adding 50 μL of TMB reagent followed by incubation for 15 minutes at room temperature in the dark. The reaction is stopped by adding 50 μL of 2N HCl. The plate is read at 450 nm.

T1 sequence (Q9I317 whole entry): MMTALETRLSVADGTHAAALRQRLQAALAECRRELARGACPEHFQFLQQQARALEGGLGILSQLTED
T1 sequence (P95435 whole entry): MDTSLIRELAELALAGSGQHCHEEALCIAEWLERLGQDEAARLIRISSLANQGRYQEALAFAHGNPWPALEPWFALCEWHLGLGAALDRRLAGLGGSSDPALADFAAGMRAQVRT

Structure (SMILES) | inhibition at 50 µM [%] | inhibitory effect compared with clioquinol | further results
[N-]=[N+]=NCCCCCCCCCCCCOCCCc1ccc[n+](CCCCCCCCOCCCc2cccnc2)c1 [molecule 31, 3-(3-(12-azidododecyloxy)propyl)-1-(8-(3-(pyridin-3-yl)propoxy)octyl)pyridinium chloride] | 82.9 | superior to clioquinol | –
Oc1c(I)cc(Cl)c2cccnc12 [Clioquinol, reference compound] | – | – | IC50: 5 µM; PscE-PscG at 50 μM (240 min): 45.2%; inhibition at 25 µM: 93.7%
CC(=O)Oc1c(-c2cn(CCCCOCCCc3ccc[n+](CCCCCCOCCCc4cccnc4)c3)nn2)cc(Cl)c2cccnc12 [molecule 36, 3-(3-(4-(4-(8-acetoxy-5-chloroquinolin-7-yl)-1H-1,2,3-triazol-1-yl)butoxy)propyl)-1-(6-(3-(pyridin-3-yl)propoxy)hexyl)pyridinium chloride] | 54.2 | superior to clioquinol | –
CC(=O)Oc1c(-c2cn(CCCCOCCCc3ccc[n+](CCCCCCCCOCCCc4cccnc4)c3)nn2)cc(Cl)c2cccnc12 [molecule 38, 3-(3-(4-(4-(8-acetoxy-5-chloroquinolin-7-yl)-1H-1,2,3-triazol-1-yl)butoxy)propyl)-1-(8-(3-(pyridin-3-yl)propoxy)octyl)pyridinium chloride] | 27.3 | – | –
[N-]=[N+]=NCCCCOCCCc1ccc[n+](CCCCCCOCCCc2cccnc2)c1 [molecule 18, 3-(3-(4-azidobutoxy)propyl)-1-(6-(3-(pyridin-3-yl)propoxy)hexyl)pyridinium chloride] | – | – | PscE-PscG at 50 μM: no inhibition
CC(=O)Oc1c(-c2cn(CCCCCCOCCCc3ccc[n+](CCCCCCCCCCOCCCc4cccnc4)c3)nn2)cc(Cl)c2cccnc12 [molecule 45, 3-(3-(6-(4-(8-acetoxy-5-chloroquinolin-7-yl)-1H-1,2,3-triazol-1-yl)hexyloxy)propyl)-1-(10-(3-(pyridin-3-yl)propoxy)decyl)pyridinium chloride] | 71.6 | superior to clioquinol | –
Cc1cc2c(C(C)C)c(O)c(O)c(C=O)c2c(O)c1-c1c(C)cc2c(C(C)C)c(O)c(O)c(C=O)c2c1O [Gossypol, reference compound] | – | – | inhibition at 25 µM: 73.9%
CC(=O)Oc1c(-c2cn(CCCCCCOCCCc3ccc[n+](CCCCCCCCOCCCc4cccnc4)c3)nn2)cc(Cl)c2cccnc12 [molecule 40, 3-(3-(6-(4-(8-acetoxy-5-chloroquinolin-7-yl)-1H-1,2,3-triazol-1-yl)hexyloxy)propyl)-1-(8-(3-(pyridin-3-yl)propoxy)octyl)pyridinium chloride] | 87.2 | superior to clioquinol | –
CC(=O)Oc1c(-c2cn(CCCCCCCCCCOCCCc3ccc[n+](CCCCCCOCCCc4cccnc4)c3)nn2)cc(Cl)c2cccnc12 [molecule 42, 3-(3-(10-(4-(8-acetoxy-5-chloroquinolin-7-yl)-1H-1,2,3-triazol-1-yl)decyloxy)propyl)-1-(6-(3-(pyridin-3-yl)propoxy)hexyl)pyridinium chloride] | – | – | PscE-PscG at 50 μM: no inhibition
CC(=O)Oc1c(-c2cn(CCCCCCOCCCc3ccc[n+](CCCCCCOCCCc4cccnc4)c3)nn2)cc(Cl)c2cccnc12 [molecule 39, 3-(3-(6-(4-(8-acetoxy-5-chloroquinolin-7-yl)-1H-1,2,3-triazol-1-yl)hexyloxy)propyl)-1-(6-(3-(pyridin-3-yl)propoxy)hexyl)pyridinium chloride] | 97.3 | superior to clioquinol | –
[N-]=[N+]=NCCCCCCCCCCCCOCCCc1ccc[n+](CCCCCCCCCCCCOCCCc2cccnc2)c1 [molecule 34, 3-(3-(12-azidododecyloxy)propyl)-1-(12-(3-(pyridin-3-yl)propoxy)dodecyl)pyridinium chloride] | 30.6 | – | –
[N-]=[N+]=NCCCCCCOCCCc1ccc[n+](CCCCCCCCCCCCOCCCc2cccnc2)c1 [molecule 28, 3-(3-(6-azidohexyloxy)propyl)-1-(12-(3-(pyridin-3-yl)propoxy)dodecyl)pyridinium chloride] | 37.8 | – | –
CC(=O)Oc1c(-c2cn(CCCCCCCCCCCCOCCCc3ccc[n+](CCCCOCCCc4cccnc4)c3)nn2)cc(Cl)c2cccnc12 [molecule 44, 3-(3-(12-(4-(8-acetoxy-5-chloroquinolin-7-yl)-1H-1,2,3-triazol-1-yl)dodecyloxy)propyl)-1-(4-(3-(pyridin-3-yl)propoxy)butyl)pyridinium chloride] | 33.4 | – | –
[N-]=[N+]=NCCCCCCCCOCCCc1ccc[n+](CCCCCCCCCCOCCCc2cccnc2)c1 [molecule 29, 3-(3-(8-azidooctyloxy)propyl)-1-(10-(3-(pyridin-3-yl)propoxy)decyl)pyridinium chloride] | 24 | – | –
CC(=O)Oc1c(-c2cn(CCCCCCCCCCOCCCc3ccc[n+](CCCCCCCCCCOCCCc4cccnc4)c3)nn2)cc(Cl)c2cccnc12 [molecule 48, 3-(3-(10-(4-(8-acetoxy-5-chloroquinolin-7-yl)-1H-1,2,3-triazol-1-yl)decyloxy)propyl)-1-(10-(3-(pyridin-3-yl)propoxy)decyl)pyridinium chloride] | 72.3 | superior to clioquinol | –
CC(=O)Oc1c(-c2cn(CCCCCCCCCCCCOCCCc3ccc[n+](CCCCCCCCCCOCCCc4cccnc4)c3)nn2)cc(Cl)c2cccnc12 [molecule 51, 3-(3-(12-(4-(8-acetoxy-5-chloroquinolin-7-yl)-1H-1,2,3-triazol-1-yl)dodecyloxy)propyl)-1-(10-(3-(pyridin-3-yl)propoxy)decyl)pyridinium chloride] | 28.9 | – | –
CC(=O)Oc1c(-c2cn(CCCCCCCCOCCCc3ccc[n+](CCCCCCOCCCc4cccnc4)c3)nn2)cc(Cl)c2cccnc12 [molecule 41, 3-(3-(8-(4-(8-acetoxy-5-chloroquinolin-7-yl)-1H-1,2,3-triazol-1-yl)octyloxy)propyl)-1-(6-(3-(pyridin-3-yl)propoxy)hexyl)pyridinium chloride] | 69.1 | superior to clioquinol | –
[N-]=[N+]=NCCCCCCOCCCc1ccc[n+](CCCCCCCCOCCCc2cccnc2)c1 [molecule 22, 3-(3-(6-azidohexyloxy)propyl)-1-(8-(3-(pyridin-3-yl)propoxy)octyl)pyridinium chloride] | 88.8 | superior to clioquinol | –
[N-]=[N+]=NCCCCOCCCc1ccc[n+](CCCCOCCCc2cccnc2)c1 [molecule 17, 3-(3-(4-azidobutoxy)propyl)-1-(4-(3-(pyridin-3-yl)propoxy)butyl)pyridinium chloride] | – | – | PscE-PscG at 50 μM: no inhibition
[N-]=[N+]=NCCCCCCCCCCCCOCCCc1ccc[n+](CCCCOCCCc2cccnc2)c1 [molecule 26, 3-(3-(12-azidododecyloxy)propyl)-1-(4-(3-(pyridin-3-yl)propoxy)butyl)pyridinium chloride] | 44.2 | – | –
[N-]=[N+]=NCCCCCCOCCCc1ccc[n+](CCCCCCCCCCOCCCc2cccnc2)c1 [molecule 27, 3-(3-(6-azidohexyloxy)propyl)-1-(10-(3-(pyridin-3-yl)propoxy)decyl)pyridinium chloride] | 39.6 | – | –
CC(=O)Oc1c(-c2cn(CCCCCCCCOCCCc3ccc[n+](CCCCCCCCOCCCc4cccnc4)c3)nn2)cc(Cl)c2cccnc12 [molecule 43, 3-(3-(8-(4-(8-acetoxy-5-chloroquinolin-7-yl)-1H-1,2,3-triazol-1-yl)octyloxy)propyl)-1-(8-(3-(pyridin-3-yl)propoxy)octyl)pyridinium chloride] | 29.5 | – | –
[N-]=[N+]=NCCCCCCCCCCOCCCc1ccc[n+](CCCCCCCCCCOCCCc2cccnc2)c1 [molecule 30, 3-(3-(10-azidodecyloxy)propyl)-1-(10-(3-(pyridin-3-yl)propoxy)decyl)pyridinium chloride] | 52.8 | superior to clioquinol | –
[N-]=[N+]=NCCCCCCCCCCOCCCc1ccc[n+](CCCCCCOCCCc2cccnc2)c1 [molecule 24, 3-(3-(10-azidodecyloxy)propyl)-1-(6-(3-(pyridin-3-yl)propoxy)hexyl)pyridinium chloride] | 38.6 | – | –
[N-]=[N+]=NCCCCCCCCCCCCOCCCc1ccc[n+](CCCCCCCCCCOCCCc2cccnc2)c1 [molecule 33, 3-(3-(12-azidododecyloxy)propyl)-1-(10-(3-(pyridin-3-yl)propoxy)decyl)pyridinium chloride] | 54.2 | superior to clioquinol | –
